Source: the NIST ThermoML archive (doi:10.1016/j.jct.2017.06.001)

Experiment: xn = mol fraction of the nth substance listed
Conditions: 100 kPa, Liquid; for speed of sound: Frequency=5 MHz, Pulse-echo method; for mass density: Vibrating tube method

OCCCCCO [1,5-pentanediol] + O
Conditions	mass density [kg/m3]	speed of sound [m/s]
288.15 K, x1 = 0.005	998.88	–
288.15 K, x1 = 0.0101	999.03	–
288.15 K, x1 = 0.0196	999.79	–
288.15 K, x1 = 0.0251	1000.47	–
288.15 K, x1 = 0.0304	1001.25	–
288.15 K, x1 = 0.05	1003.56	–
288.15 K, x1 = 0.0769	1005.76	–
288.15 K, x1 = 0.1002	1007.25	–
288.15 K, x1 = 0.1438	1008.43	–
288.15 K, x1 = 0.1845	1008.63	–
288.15 K, x1 = 0.206	–	1706.1
288.15 K, x1 = 0.2108	–	1706.3
288.15 K, x1 = 0.2162	–	1706.4
288.15 K, x1 = 0.2177	–	1706.4
288.15 K, x1 = 0.2203	–	1706.5
288.15 K, x1 = 0.2319	–	1706.5
288.15 K, x1 = 0.2402	–	1706.4
288.15 K, x1 = 0.25	–	1706.2
288.15 K, x1 = 0.2503	1007.9	–
288.15 K, x1 = 0.2599	–	1706
288.15 K, x1 = 0.2695	–	1705.6
288.15 K, x1 = 0.283	–	1705
288.15 K, x1 = 0.3	1006.94	–
288.15 K, x1 = 0.3004	–	1704.1
288.15 K, x1 = 0.3171	–	1703
288.15 K, x1 = 0.3343	1006.2	–
288.15 K, x1 = 0.3398	–	1701.4
288.15 K, x1 = 0.3601	–	1699.8
288.15 K, x1 = 0.3882	–	1697.2
288.15 K, x1 = 0.4171	1004.47	–
288.15 K, x1 = 0.4185	–	1694.2
288.15 K, x1 = 0.4484	–	1690.8
288.15 K, x1 = 0.454	1003.59	–
288.15 K, x1 = 0.4755	–	1687.5
288.15 K, x1 = 0.4893	–	1685.8
288.15 K, x1 = 0.5003	1002.5	–
288.15 K, x1 = 0.508	–	1683.4
288.15 K, x1 = 0.5305	–	1680.3
288.15 K, x1 = 0.5362	1001.6	–
288.15 K, x1 = 0.5516	–	1677.4
288.15 K, x1 = 0.5741	–	1674.2
288.15 K, x1 = 0.5932	–	1671.5
288.15 K, x1 = 0.6177	999.9	–
288.15 K, x1 = 0.6187	–	1667.9
288.15 K, x1 = 0.6383	–	1665
288.15 K, x1 = 0.6478	999.3	–
288.15 K, x1 = 0.6592	–	1662.1
288.15 K, x1 = 0.6819	–	1658.9
288.15 K, x1 = 0.7025	998.2	–
288.15 K, x1 = 0.7043	–	1655.7
288.15 K, x1 = 0.7236	–	1653.1
288.15 K, x1 = 0.7443	–	1650.3
288.15 K, x1 = 0.7504	997.4	–
288.15 K, x1 = 0.7647	–	1647.6
288.15 K, x1 = 0.7836	–	1645.2
288.15 K, x1 = 0.7927	996.5	–
288.15 K, x1 = 0.8018	–	1642.8
288.15 K, x1 = 0.8231	–	1640.1
288.15 K, x1 = 0.8417	–	1637.8
288.15 K, x1 = 0.8605	995.2	–
288.15 K, x1 = 0.8609	–	1635.4
288.15 K, x1 = 0.8783	–	1633.2
288.15 K, x1 = 0.8967	–	1630.9
288.15 K, x1 = 0.9004	994.4	–
288.15 K, x1 = 0.9133	–	1628.7
288.15 K, x1 = 0.9388	–	1625.3
288.15 K, x1 = 0.9496	993.3	–
288.15 K, x1 = 0.9515	–	1623.6
288.15 K, x1 = 0.9651	–	1621.7
288.15 K, x1 = 0.9837	–	1618.9
288.15 K, x1 = 1	992.2	1616.4
293.15 K, x1 = 0.0002	–	1483
293.15 K, x1 = 0.0004	–	1483.8
293.15 K, x1 = 0.0005	–	1484.4
293.15 K, x1 = 0.0008	–	1485.6
293.15 K, x1 = 0.0012	–	1487
293.15 K, x1 = 0.0017	–	1489
293.15 K, x1 = 0.0021	–	1490.8
293.15 K, x1 = 0.0029	–	1493.7
293.15 K, x1 = 0.0037	–	1496.8
293.15 K, x1 = 0.0043	–	1499.2
293.15 K, x1 = 0.005	–	1501.8
293.15 K, x1 = 0.0057	–	1504.5
293.15 K, x1 = 0.0064	–	1506.9
293.15 K, x1 = 0.0071	–	1509.3
293.15 K, x1 = 0.0078	–	1511.9
293.15 K, x1 = 0.0085	–	1514.3
293.15 K, x1 = 0.0091	–	1516.7
293.15 K, x1 = 0.0098	–	1519
293.15 K, x1 = 0.0107	–	1522
293.15 K, x1 = 0.0113	–	1524.2
293.15 K, x1 = 0.012	–	1526.6
293.15 K, x1 = 0.0128	–	1529.1
293.15 K, x1 = 0.0136	–	1531.6
293.15 K, x1 = 0.0143	–	1534
293.15 K, x1 = 0.015	–	1536.2
293.15 K, x1 = 0.0158	–	1538.5
293.15 K, x1 = 0.0165	–	1540.7
293.15 K, x1 = 0.0172	–	1543
293.15 K, x1 = 0.018	–	1545.3
293.15 K, x1 = 0.0189	–	1547.8
293.15 K, x1 = 0.0198	–	1550.5
293.15 K, x1 = 0.0206	–	1552.8
293.15 K, x1 = 0.0214	–	1555.3
293.15 K, x1 = 0.0224	–	1557.8
293.15 K, x1 = 0.0232	–	1560.2
293.15 K, x1 = 0.0241	–	1562.7
293.15 K, x1 = 0.0254	–	1566
293.15 K, x1 = 0.0263	–	1568.5
293.15 K, x1 = 0.0276	–	1571.6
293.15 K, x1 = 0.0285	–	1573.9
293.15 K, x1 = 0.0294	–	1576.1
293.15 K, x1 = 0.0302	–	1578.2
293.15 K, x1 = 0.0314	–	1580.8
293.15 K, x1 = 0.0323	–	1583.1
293.15 K, x1 = 0.0333	–	1585.3
293.15 K, x1 = 0.0343	–	1587.6
293.15 K, x1 = 0.0355	–	1590.1
293.15 K, x1 = 0.0368	–	1592.9
293.15 K, x1 = 0.0383	–	1596.3
293.15 K, x1 = 0.0398	–	1599.2
293.15 K, x1 = 0.0408	–	1601.4
293.15 K, x1 = 0.0418	–	1603.3
293.15 K, x1 = 0.0435	–	1606.5
293.15 K, x1 = 0.0451	–	1609.5
293.15 K, x1 = 0.0472	–	1613.3
293.15 K, x1 = 0.0491	–	1616.6
293.15 K, x1 = 0.0506	–	1619.2
293.15 K, x1 = 0.0528	–	1622.7
293.15 K, x1 = 0.0552	–	1626.4
293.15 K, x1 = 0.0569	–	1629
293.15 K, x1 = 0.0599	–	1633.3
293.15 K, x1 = 0.0612	–	1635.1
293.15 K, x1 = 0.0629	–	1637.4
293.15 K, x1 = 0.0645	–	1639.4
293.15 K, x1 = 0.0665	–	1641.9
293.15 K, x1 = 0.0684	–	1644.3
293.15 K, x1 = 0.0711	–	1647.4
293.15 K, x1 = 0.0738	–	1650.3
293.15 K, x1 = 0.077	–	1653.6
293.15 K, x1 = 0.08	–	1656.5
293.15 K, x1 = 0.0837	–	1659.9
293.15 K, x1 = 0.0871	–	1662.8
293.15 K, x1 = 0.0895	–	1664.7
293.15 K, x1 = 0.0944	–	1668.3
293.15 K, x1 = 0.0974	–	1670.4
293.15 K, x1 = 0.1023	–	1673.5
293.15 K, x1 = 0.1068	–	1676.1
293.15 K, x1 = 0.1108	–	1678.1
293.15 K, x1 = 0.1168	–	1680.9
293.15 K, x1 = 0.121	–	1682.7
293.15 K, x1 = 0.1249	–	1684.1
293.15 K, x1 = 0.1295	–	1685.7
293.15 K, x1 = 0.1356	–	1687.5
293.15 K, x1 = 0.1401	–	1688.7
293.15 K, x1 = 0.1445	–	1689.8
293.15 K, x1 = 0.1521	–	1691.3
